Values joined by “and” are separate entries in the source; they are usually repeats but may differ in a detail not shown here. Equal values may be shown once.
Key:
[1] = test system: grain aphids, Sitobion avenae; assay: Behavioural assay, four-arm olfactometer; format: in vivo; details: for Time spent in control arms (mean of 3) / Time spent in treatment arm: mean (SE), 16 min, 10 replicates; for Insect repellent / attractant activity (in words): summary statement
Experimental: The responses of individual grain aphids, Sitobion avenae, to test compounds were observed using a Perspex four-arm olfactometer (Pettersson, J.; Ent. Scand. 1, 63-73 (1970); Webster, B., et al. Animal Behav. 79, 451-457 (2010)), which was maintained at 23° C. and lit from above. A filter paper disc was laid in the bottom section of the olfactometer to provide traction for the aphid and the middle and top sections were fitted into place very tightly to give a good seal. The four arms, consisting of the barrels of disposable 10 mL syringes (Plastipak), were fitted tightly into the holes of the middle section, and filtered air was drawn through them and into the body of the olfactometer through a tube inserted into a hole in the centre of the top section and attached to a pump. The measured total flow rate was 200 mL/min and it was assumed that the flow rate through each arm was 50 mL/min. The three control arms each contained a filter paper strip to which had been applied 10 µL hexane which had been allowed to evaporate for 30 s. The treatment arm contained a filter paper strip to which the test compound in 10 μL of hexane (20-200 ng μL^−1) had been applied and left for 30 s for the hexane to evaporate. A single aphid was introduced through the central hole and the suction tube quickly reinserted. The time spent in each arm and in the central zone were recorded, using specialist software (OLFA, Udine, Italy), for the next 16 minutes. The olfactometer was rotated through 90° every 2 min to eliminate any directional bias. Each assay comprised 10 replicates and the mean time spent in treated and control arms were compared using a paired t-test (Genstat).
Data were recorded as mean (±SE) time spent in control (solvent only) or treatment arms and were analysed using Students T-test.

[2] = test system: grain aphid (Sitobion avenae); details: background statement; cited from earlier work

Row | Structure (SMILES) | Time spent in treatment arm ([1]; dose 1.0 μg) | Time spent in control arms (mean of 3) ([1]; dose 2.0 μg) | Time spent in treatment arm ([1]; dose 2.0 μg) | Time spent in control arms (mean of 3) ([1]; dose 1.0 μg) | other results
1 | C=C1/C=C/[C@H](C(C)C)CC/C(C)=C/CC1 [Comparator Compound Ia, (S)-germacrene D] | 1.63 (0.35) min | 2.29 (0.41) min | 0.50 (0.14) min |  | Time spent in control arms (mean of 3) ([1]; dose 0.2 μg): 2.31 (0.26) min; Time spent in treatment arm ([1]; dose 0.2 μg): 1.14 (0.25) min
2 | C=C1C=C[C@H](C(C)CC)CCC(C)=CCC1 (stereo partly drawn) [Comparator Compound Ib, (S)-12-methylgermacrene D] |  |  |  |  | Time spent in control arms (mean of 3) ([1]; dose 0.9 μg): 2.21 (0.42) min; Time spent in treatment arm ([1]; dose 0.9 μg): 1.20 (0.24) min; Time spent in control arms (mean of 3) ([1]; dose 1.2 μg): 2.66 (0.17) min; Time spent in treatment arm ([1]; dose 1.2 μg): 2.13 (0.25) min
3 | C=C1C=C[C@H](C(C)C)CCC(CC)=CCC1 [Comparator Compound Ic, (S)-14-methylgermacrene D] | 3.27 (0.68) min | 2.01 (0.23) min | 1.65 (0.39) min | 2.61 (0.28) min | Time spent in control arms (mean of 3) ([1]; dose 0.2 μg): 2.21 (0.27) min; Time spent in treatment arm ([1]; dose 0.2 μg): 2.41 (0.73) min
4 | C=C1C=C[C@H](C(C)C)CCC(C)=C(F)CC1 [Comparator Compound Ih, (S)-1-fluorogermacrene D] | 2.62 (0.50) min | 2.60 (0.26) min | 2.46 (0.39) min | 2.54 (0.27) min | 
5 | CC=C1C=C[C@H](C(C)C)CCC(C)=CCC1 [Compound If, (S)-15-methylgermacrene D] | 1.92 (0.31) min |  |  | 2.52 (0.23) min | Time spent in control arms (mean of 3) ([1]; dose 0.8 μg): 2.61 (0.26) min; Time spent in treatment arm ([1]; dose 0.8 μg): 1.38 (0.38) min; Insect repellent / attractant activity (in words) [1]: much greater insect repellent activity
6 | CC=C1C=C[C@H](C(C)C)CCC(CC)=CCC1 [Compound Ig, (S)-14,15-dimethylgermacrene D] | 2.77 (0.31) min and 2.97 (0.40) min |  |  | 2.27 (0.11) min and 2.39 (0.20) min | Time spent in control arms (mean of 3) ([1]; dose 0.8 μg): 2.60 (0.22) min; Time spent in treatment arm ([1]; dose 0.8 μg): 3.38 (0.38) min; Time spent in control arms (mean of 3) ([1]; dose 1.2 μg): 1.96 (0.21) min; Time spent in treatment arm ([1]; dose 1.2 μg): 2.92 (0.23) min; Insect repellent / attractant activity (in words) [1]: strong insect attractant properties
7 | C=C1/C=C/[C@H](C(C)C)CC/C(C)=C/CC1 [Germacrene D] |  |  |  |  | Insect repellent activity (in words) [2]: repel insects
8 | C=C1/C=C/[C@@H](C(C)C)CC/C(C)=C/CC1 [III, (R)-germacrene D] | 3.15 (0.53) min | 1.86 (0.29) min | 2.65 (0.52) min | 2.57 (0.19) min | 
9 | CC1CCCC(C)CCC(C(C)C)CC1 (stereo not shown) [IV, germacrane] | 2.04 (0.58) min | 2.39 (0.24) min | 2.38 (0.50) min | 2.45 (0.30) min | 

Reference: patent US10334845B2, “Olfactory ligands” (University College Cardiff Consultants Limited, priority 2015, dated 2019)
